Results: patent US20250019371A1, “SMALL-MOLECULAR INHIBITORS FOR THE BETA-CATENIN/ B-CELL LYMPHOMA 9 PROTEIN-PROTEIN INTERACTION” (H. LEE MOFFITT CANCER CENTER AND RESEARCH INSTITUTE, INC., priority 2021, published 2025)

Columns and labels:
[1] = tested on: Axin2 and cyclin D1 protein expression; assay: Western blot of Wnt target genes in SW480 cells; assay type: cell-based; settings: 24 h
Method: Western Blotting of Wnt Target Genes. SW480 cells at 1×10^6 cells/mL were treated with different concentrations of inhibitors for 24 h. Cells were lysed in buffer containing 50 mM Tris, pH 7.4, 150 mM NaCl, 1% Nonidet P-40, 2 mM EDTA, and protease inhibitors. After centrifugation at 12,000 rpm for 20 min at 4° C., the supernatant was loaded onto an 8% SDS polyacrylamide gel for electrophoretic analysis. Separated proteins were transferred onto nitrocellulose membranes for immunoblot analysis. The antibodies against Axin2 (MA5-15015, Thermo Fisher), cyclin D1 (sc-853, Santa Cruz Biotechnology), and β-tubulin (sc-55529, Santa Cruz Biotechnology) were incubated with the membranes overnight at 4° C., respectively. IRDye 680LT goat anti-mouse IgG (827-11080, LiCOR) or IRDye 800CW goat anti-rabbit IgG (827-08365, LiCOR) was used as the secondary antibody. The images were detected by the Odyssey Infrared Imaging System (Odyssey Fc, LiCOR). Experiments were performed in duplicate.

[2] = tested on: MDA-MB-231; assay: MTS cell viability assay, MDA-MB-231; assay type: cell-based; settings: Homo sapiens, 72 h, Wnt/β-catenin hyperactive, mean ± SD (n = 3)
Method: (§1) MTS Cell Growth Inhibition Experiments. Colorectal cancer cells (SW480 and HCT116) and triple negative breast cancer cells (MDA-MB-231 and MDA-MB-468) were seeded in 96-well plates at 5×10^3 cells/well in DMEM with 10% FCS, maintained overnight at 37° C., and incubated with the tested compounds at various concentrations. Human mammary epithelial cell MCF10A were seeded in 96-well plates at 1×10^4 cells/well in MEGM (CC-3150, Lonza) with 100 ng/mL cholera toxin, maintained overnight at 37° C., and incubated with the tested compounds at various concentrations. Cell viability was monitored after 72 h using a freshly prepared mixture of 1 part phenazine methosulfate (PMS, Sigma) solution (0.92 mg/mL) and 19 parts 3-(4,5-dimethylthiazol-2-yl)-5-(3-carboxymethoxyphenyl)-2-(4-sulfophenyl)-2H-tetrazolium (MTS, Promega) solution (2 mg/mL). Cells were incubated in 10 μL of this solution at 37° C. for 3 h, and A490 was measured. […] Experiments were performed in triplicate.

[3] = tested on: Wnt/β-catenin hyperactive cancer cells; assay: MTS cell viability assays, cell panel; assay type: cell-based; settings: SW480, HCT116, MDA-MB-231, MDA-MB-468; read-out: IC50s for viability of Wnt/β-catenin hyperactive cancer cells
Method: as §1

[4] = tested on: β-catenin/BCL9 PPI; assay: Co-immunoprecipitation in HCT116 cells, β-catenin/BCL9; assay type: cell-based; settings: 24 h, full-length proteins
Method: (§2) C0-Immunoprecipitation (C0-IP) Experiments. HCT116 cancer cells with hyperactive 8-catenin signaling at 1×10^6 cells/mL were treated with different concentrations of the inhibitor for 24 h. Cells were then lysed in buffer containing 50 mM Tris, pH 7.4, 150 mM NaCl, 1% Nonidet P-40, 2 mM EDTA, and protease inhibitors. The cell lysates were pre-adsorbed to A/G plus agarose (sc-2003, Santa Cruz Biotechnology) at 4° C. for 1 h. Pre-adsorbed lysates were incubated with a specific primary antibody against β-catenin (610153, BD Biosciences) overnight at 4° C. A/G plus agarose was then added to the lysate mixture and incubated for 3 h. The beads were washed four times with the lysis buffer at 4° C. The bound protein was eluted by boiling in the SDS sample buffer and loaded onto 8% SDS polyacrylamide gel for electrophoretic analysis. Separated proteins were transferred onto nitrocellulose membranes for immunoblot analysis. The antibodies against BCL9 (ab37305, Abcam) and E-cadherin (610404, BD Biosciences), were incubated with the membranes, respectively. IRDye 680LT goat anti mouse IgG (827-11080, LiCOR) and IRDye 800CW goat anti rabbit IgG (926-32211, LiCOR) were used as the secondary antibodies. The images were detected by the Odyssey Infrared Imaging System (LiCOR). Experiments were performed in triplicate.

[5] = tested on: HCT116; assay: MTS cell viability assay, HCT116; assay type: cell-based; settings: Homo sapiens, HCT-116; 72 h, Wnt/β-catenin hyperactive, mean ± SD (n = 3)
Method: as §1

[6] = tested on: β-catenin/E-cadherin PPI; assay: Co-immunoprecipitation in HCT116 cells, β-catenin/E-cadherin; assay type: cell-based; settings: concentrations sufficient to disrupt β-catenin/BCL9
Method: as §2

[7] = tested on: FOPFlash luciferase reporter (mutated Tcf4 binding sites); assay: FOPFlash luciferase reporter assay in SW480 cells; assay type: cell-based; settings: same concentration range as TOPFlash
Method: The suppressing effect of the inhibitors on transactivation of Wnt/β-catenin signaling was evaluated by the TOPFlash/FOPFlash luciferase reporter assay. In the TOPFlash assay, the luciferase reporter has three wild-type Tcf4 binding sites, while in the FOPFlash assay Tcf4 binding sites were mutated. These tandem Tcf binding sites controls the expression ratio of the firefly luciferase in TOPFlash/FOPFlash assays. The renilla luciferase reporter construct (pCMV-RL) was used as the internal control to normalize luciferase reporter signals and eliminate any possible systematic errors. […] This selectivity trend is consistent with that from MTS cell viability assays. Therefore, further cell-based studies were focused on compound 30.
Cell Transfection and Luciferase Assay. FuGENE6 (E269A, Promega) 96 well plate format was used for the transfection of SW480 cells according to the manufacturer's instruction. SW480 cells were co-transfected with 60 ng the TOPFlash or FOPFlash firefly luciferase reporter gene and 40 ng renilla luciferase pCMV-RL normalization reporter gene. Cells were cultured in DMEM and 10% FBS at 37° C. for 24 h, and different concentrations of inhibitors or DMSO was added. After 24 h, the luciferase reporter activity was measured using the Dual-Glo system (E2940, Promega). […]

[8] = tested on: MCF10A; assay: MTS cell viability assay, MCF10A; assay type: cell-based, human; settings: Homo sapiens, MCF-10A; 72 h, Wnt/β-catenin normal, mean ± SD (n = 3)
Method: as §1

Which results are given for `CC(C)(Oc1cccc(N2CCC[C@H](C(=O)N(Cc3ccc(-c4cccs4)cc3)C3CC3)C2)c1)C(=O)NS(=O)(=O)c1ccc(C#N)cc1` [Compound 30, (S)-((4-Cyanophenyl)sulfonyl) (2-(3-(3-(cyclopropyl(4-(thiophen-2-yl)benzyl)carbamoyl)piperidin-1-yl)phenoxy)-2-methylpropanoyl)amide]?
protein expression levels of Axin2 and cyclin D1 (Western blot) [1]: dose-dependently decreased; IC50 [2]: 14.3 ± 0.57 µM; IC50 [3]: 14 to 30 µM; disruption of β-catenin/BCL9 PPI in cells (co-IP) [4]: disrupted the β-catenin/BCL9 PPI in a dose-dependent manner; IC50 [5]: 29.6 ± 1.02 µM; effect on β-catenin/E-cadherin PPI in cells (co-IP) [6]: did not affect the β-catenin/E-cadherin PPI; effect on FOPFlash luciferase reporter activity [7]: did not show any inhibitory effect; IC50 [8]: 139 ± 3.16 µM
